Experimental data: US8153791B2, “Substituted pyrimidinyl oxime kinase inhibitors” (Janssen Pharmaceutica N.V., priority 2005, dated 2012)
Read-outs that look alike come from different tables or passages of the source.

Experiments:
[1] = test system: HeLa cervical adenocarcinoma; test: In vitro cell proliferation inhibition, HeLa; format: cell-based; details: Homo sapiens, read-out: HeLa IC50
Text: (§1) The ability of a test compound to inhibit unregulated in vitro cell proliferation may be determined by measuring incorporation of ^14C-labelled thymidine into newly synthesized DNA within cell lines derived from carcinomas originating from several tissues. Accordingly, the effect of a test compound on proliferation of cells with a variety of phenotypes may be determined.
(§2) Carcinoma cell lines used include the HeLa cervical adenocarcinoma from the American Type Culture Collection (ATCC Cat. #CCL2), SK-OV-3 ovarian carcinoma (ATCC Cat. #HTB-77), MCF-7 breast carcinoma (ATCC Cat. #HTB-22), BT474 breast carcinoma (ATCC Cat. #HTB-20), SKBR3 breast carcinoma (ATCC Cat. #HTB-30), A431 epidermoid carcinoma (ATCC Cat. #CRL-1555) and NCI-N87 gastric carcinoma (ATCC Cat. #CRL-5822).
(§3) The carcinoma cells are trypsinized and counted. The cells (3000-8000 count) are added to each well of a 96-well CytoStar tissue culture treated scintillating microplate (Amersham #RPNQ0160) in complete medium (100 μL) and the plate is then incubated in complete medium for 24 hrs at 37° C. in an inert atmosphere containing 5% CO2.
(§4) Test compound (1 μL) in 100% DMSO is added to the plate test-wells with DMSO only added to control-wells. The plate is incubated in complete medium for a second 24 hr period at 37° C. in an atmosphere containing 5% CO2.
(§5) An aliquot of a solution of Methyl ^14C-thymidine (56 mC/mmol) (NEN #NEC568 or Amersham #CFA532) and complete medium (20 μL to provide 0.2 μCi/well) is then added to each well and the plate is incubated for a third 24 hr period at 37° C. in an atmosphere containing 5% CO2.
(§6) The plate contents are then discarded, the plate is washed twice with PBS (200 μL) and then PBS (200 μL) is added to each well. The plate is sealed and the degree of methyl ^14C-thymidine incorporation is quantified on a Packard Top Count.
(§7) Cell proliferation of the Hela cell line was measured using the ATP-Lite method as described in the ATP Lite Kit (Perkin-Elmer Kit Number 6106941) or the C^14 method as described above. Cell proliferation of the other cell lines was measured using the C^14 method.
(§8) The term “NT” means that the compound indicated was not tested in a particular cell line. The lack of such testing is not intended to imply a belief that the compound is not otherwise active in a particular cell line or any other cell line not tested.

SKBR3 breast carcinoma = test: In vitro cell proliferation inhibition, SKBR3; format: cell-based; details: Homo sapiens, SK-BR-3; SKBR3 cells, 14C-thymidine incorporation; read-out: IC50 SKBR3
Text: as §1, §2, §3, §4, §5, §6, §7, §8

[2] = test system: A431 epidermoid carcinoma; test: In vitro cell proliferation inhibition, A431; format: cell-based; details: Homo sapiens, A-431; A431 cells, 14C-thymidine incorporation; read-out: IC50 A431
Text: as §1, §2, §3, §4, §5, §6, §7, §8

[3] = test system: NCI-N87 gastric carcinoma; test: In vitro cell proliferation inhibition, NCI-N87; format: cell-based; details: Homo sapiens, NCI-N87; N87 cells, 14C-thymidine incorporation; read-out: IC50 N87
Text: as §1, §2, §3, §4, §5, §6, §7, §8

BT474 breast carcinoma = test: In vitro cell proliferation inhibition, BT474; format: cell-based; details: Homo sapiens, BT-474; BT474 cells, 14C-thymidine incorporation; read-out: IC50 BT474
Text: as §1, §2, §3, §4, §5, §6, §7, §8

HER-2 = target: T1, HER-2 (Homo sapiens, UniProt P04626); test: HER-2 Kinase Assay; format: biochemical; details: for IC50: read-out: HER2 IC50;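 on all read-outs here: HER2 kinase reaction read by scintillation counting, inhibition scaled between maximum and minimum signals set on each plate, IC50 from inhibition against log concentration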
T1 construct: purchased Proqinase (Freiburg, Germany)
T1 sequence (P04626 679-1255): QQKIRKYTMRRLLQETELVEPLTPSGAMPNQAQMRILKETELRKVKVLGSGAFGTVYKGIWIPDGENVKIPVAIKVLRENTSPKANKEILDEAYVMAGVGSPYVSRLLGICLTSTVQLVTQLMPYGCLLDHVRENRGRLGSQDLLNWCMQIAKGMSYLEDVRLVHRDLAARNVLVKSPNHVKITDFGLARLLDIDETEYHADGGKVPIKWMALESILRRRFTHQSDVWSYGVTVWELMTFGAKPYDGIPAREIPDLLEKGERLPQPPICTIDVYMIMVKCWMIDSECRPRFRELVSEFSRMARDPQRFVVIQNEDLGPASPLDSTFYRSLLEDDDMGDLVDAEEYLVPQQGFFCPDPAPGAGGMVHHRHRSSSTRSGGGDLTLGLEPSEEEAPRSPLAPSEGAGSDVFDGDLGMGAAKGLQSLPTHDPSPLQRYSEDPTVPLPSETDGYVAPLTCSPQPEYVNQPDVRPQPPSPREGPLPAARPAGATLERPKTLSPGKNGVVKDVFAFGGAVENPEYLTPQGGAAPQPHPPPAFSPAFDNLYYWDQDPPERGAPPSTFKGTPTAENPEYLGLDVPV

EGFR = target: T2, EGFR (Homo sapiens, UniProt P00533); test: EGFR Kinase Assay; format: biochemical; details: for inhibition at 2 µM: test concentration of 2 μM;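 on all read-outs here: recombinant GST-tagged EGFR expressed in Sf9 cells, phosphorylating biotinylated polyGluTyr with γ-33P ATP on Streptavidin Flashplates, 1 h at 30 °C, scintillation counting, inhibition relative to plate maximum and minimum signals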
T2 construct: The intracellular portion of EGFR started at nucleotide 2189 (corresponding to amino acid 667) and ended at the termination codon; made in house; host or cells: Sf9 insect cells (baculovirus)
T2 sequence (P00533 669-1210 limits assumed): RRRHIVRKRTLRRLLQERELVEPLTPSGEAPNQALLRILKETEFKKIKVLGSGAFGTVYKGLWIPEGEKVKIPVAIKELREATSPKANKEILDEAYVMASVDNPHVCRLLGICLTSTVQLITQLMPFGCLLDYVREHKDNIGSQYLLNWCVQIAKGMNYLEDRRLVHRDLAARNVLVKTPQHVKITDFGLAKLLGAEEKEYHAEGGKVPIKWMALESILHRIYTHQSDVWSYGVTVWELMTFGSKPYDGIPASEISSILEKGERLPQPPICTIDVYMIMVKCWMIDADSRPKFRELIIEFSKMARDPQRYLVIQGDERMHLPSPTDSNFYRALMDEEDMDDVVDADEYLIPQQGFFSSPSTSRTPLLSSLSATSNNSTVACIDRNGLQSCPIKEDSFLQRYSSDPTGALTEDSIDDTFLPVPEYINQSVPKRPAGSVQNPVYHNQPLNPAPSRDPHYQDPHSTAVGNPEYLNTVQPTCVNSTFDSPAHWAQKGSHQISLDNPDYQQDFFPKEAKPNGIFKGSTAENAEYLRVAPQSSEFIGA

[4] = HeLa cell line, ATP-Lite method or C14 thymidine method

Compound	IC50 [1, 4]	IC50 (HER-2)	IC50 (EGFR)	also measured
Nc1ncnc(Nc2ccc3c(cnn3Cc3cccc(F)c3)c2)c1/C=N/OCc1ccccc1 [Cpd 46, (5E)-4-amino-6-[1-(3-fluoro-benzyl)-1H-indazol-5-ylamino]-pyrimidine-5-carbaldehyde O-benzyl-oxime]	100 µM	–	–	IC50 (SKBR3 breast carcinoma): 0.3 µM; IC50 [2]: 100 µM; IC50 [3]: 10 µM; IC50 (BT474 breast carcinoma): 0.1 µM
CCO/N=C/c1c(N)ncnc1Nc1ccc2c(cnn2Cc2ccc(F)cc2)c1 [Cpd 67, (5E)-4-amino-6-[1-(4-fluoro-benzyl)-1H-indazol-5-ylamino]-pyrimidine-5-carbaldehyde O-ethyl-oxime]	–	0.2 µM	0.1 µM	–
Nc1ncnc(Nc2ccc3c(cnn3Cc3cccc(F)c3)c2)c1/C=N\OCCCO [Cpd 69, (5Z)-4-amino-6-[1-(3-fluoro-benzyl)-1H-indazol-5-ylamino]-pyrimidine-5-carbaldehyde O-(3-hydroxy-propyl)-oxime]	–	0.004 µM	0.01 µM	–
COCCO/N=C/c1c(N)ncnc1Nc1ccc(OCc2ccccc2)c(Cl)c1 [Cpd 71, (5E)-4-amino-6-(4-benzyloxy-3-chloro-phenylamino)-pyrimidine-5-carbaldehyde O-(2-methoxy-ethyl)-oxime]	–	0.05 µM	0.01 µM	–
Nc1ncnc(Nc2ccc(OCc3ccccc3)c(Cl)c2)c1/C=N/O [Cpd 77, (5E)-4-amino-6-(4-benzyloxy-3-chloro-phenylamino)-pyrimidine-5-carbaldehyde oxime]	10 µM	0.1 µM	0.02 µM	–
Nc1ncnc(Nc2ccc(OCc3cccc(F)c3)c(Cl)c2)c1/C=N/O [Cpd 79, (5E)-4-amino-6-[3-chloro-4-(3-fluoro-benzyloxy)-phenylamino]-pyrimidine-5-carbaldehyde oxime]	100 µM	0.01 µM	0.008 µM	–
CO/N=C/c1c(N)ncnc1Nc1ccc(Cl)cc1F [Cpd 80]	100 µM	–	0.3 µM	–
CO/N=C\c1c(N)ncnc1Nc1ccc(Cl)cc1F [Cpd 81]	10 µM	–	–	–
CO/N=C/c1c(N)ncnc1Nc1ccc(Br)cc1F [Cpd 82]	100 µM	–	0.2 µM	–
CO/N=C\c1c(N)ncnc1Nc1ccc(Br)cc1F [Cpd 83]	3.6 µM	–	–	–
Nc1ncnc(Nc2ccc3c(cnn3Cc3cccc(F)c3)c2)c1/C=N/O [Cpd 84, (5E)-4-amino-6-[1-(3-fluoro-benzyl)-1H-indazol-5-ylamino]-pyrimidine-5-carbaldehyde oxime]	4.9 µM	–	–	–
Nc1ncnc(Nc2ccc3c(cnn3Cc3cccc(F)c3)c2)c1/C=N/OCCCO [Cpd 85, (5E)-4-amino-6-[1-(3-fluoro-benzyl)-1H-indazol-5-ylamino]-pyrimidine-5-carbaldehyde O-(3-hydroxy-propyl)-oxime]	–	0.02 µM	0.02 µM	IC50 ([1]; HeLa): 15.6 µM
CO/N=C/c1c(NOC)ncnc1Nc1ccc(Br)cc1F [Cpd 86]	100 µM	–	–	–
Nc1ncnc(Nc2ccc3c(ccn3Cc3cccc(F)c3)c2)c1/C=N/O [Cpd 88, (5E)-4-amino-6-[1-(3-fluoro-benzyl)-1H-indol-5-ylamino]-pyrimidine-5-carbaldehyde oxime]	10.9 µM	0.02 µM	0.009 µM	–
CO/N=C/c1c(N)ncnc1Nc1cc(O)c(Cl)cc1F [Cpd 89]	10 µM	–	–	–
CO/N=C\c1c(N)ncnc1Nc1cc(O)c(Cl)cc1F [Cpd 90]	10 µM	–	–	–
CO/N=C/c1c(N)ncnc1Nc1ccc(OCc2cc(F)cc(F)c2)c(Cl)c1 [Cpd 97, (5E)-4-amino-6-[3-chloro-4-(3,5-difluoro-benzyloxy)-phenylamino]-pyrimidine-5-carbaldehyde O-methyl-oxime]	100 µM	1 µM	–	–
Nc1ncnc(Nc2ccc(OCc3cc(F)cc(F)c3)c(Cl)c2)c1/C=N/O [Cpd 98, (5E)-4-amino-6-[3-chloro-4-(3,5-difluoro-benzyloxy)-phenylamino]-pyrimidine-5-carbaldehyde oxime]	100 µM	0.1 µM	0.02 µM	–

Compound	IC50 [1, 4]	IC50 (HER-2)	IC50 (EGFR)	also measured
C[C@H](Nc1ncnc(N)c1/C=N/O)c1ccccc1 [Cpd 100, (5E)-4-amino-6-[(1S)-1-phenyl-ethylamino]-pyrimidine-5-carbaldehyde oxime]	10 µM	–	0.02 µM	–
C[C@H](Nc1ncnc(N)c1/C=N/OCCN1CCOCC1)c1ccccc1 [Cpd 103]	10 µM	–	–	–
CO/N=C/c1c(N)ncnc1Nc1ccc(NC(=O)c2ccccc2)cc1 [Cpd 104]	10 µM	–	–	–
Nc1ncnc(Nc2ccc(NC(=O)c3ccccc3)cc2)c1/C=N/O [Cpd 105]	100 µM	–	–	–
C[C@H](Nc1ncnc(N)c1/C=N/OCCN1CCCCC1)c1ccccc1 [Cpd 106]	10 µM	–	–	–
Nc1ncnc(Nc2ccc(NC(=O)c3ccccc3)cc2)c1/C=N/OCCN1CCOCC1 [Cpd 107]	100 µM	–	–	–
Nc1ncnc(Nc2ccc(F)c(Cl)c2)c1/C=N/OCCN1CCOCC1 [Cpd 108]	10 µM	1.1 µM	0.2 µM	–
Nc1ncnc(Nc2ccc(Oc3ccccc3)cc2)c1/C=N/OCCN1CCOCC1 [Cpd 109]	100 µM	–	–	–
CO/N=C/c1c(N)ncnc1Nc1cnc(NC(=O)c2ccccc2)nc1 [Cpd 110]	33.1 µM	–	–	–
Nc1ncnc(Nc2ccc(Oc3ccccc3)cc2)c1/C=N/O [Cpd 111, (5E)-4-amino-6-(4-phenoxy-phenylamino)-pyrimidine-5-carbaldehyde oxime]	–	0.3 µM	0.1 µM	–
CON=Cc1c(N)ncnc1Nc1ccc(OC)cc1 [Cpd 120, 4-amino-6-(4-methoxy-phenylamino)-pyrimidine-5-carbaldehyde O-methyl-oxime]	–	7.92 µM	–	inhibition at 2 µM (EGFR): 15%
CON=Cc1c(N)ncnc1NCc1ccc(OC)c(OC)c1 [Cpd 122, 4-amino-6-(3,4-dimethoxy-benzylamino)-pyrimidine-5-carbaldehyde O-methyl-oxime]	–	> 100 µM	–	inhibition at 2 µM (EGFR): 6%
CON=Cc1c(N)ncnc1NCc1ccc(Oc2ccccc2)cc1 [Cpd 123, 4-amino-6-(4-phenoxy-benzylamino)-pyrimidine-5-carbaldehyde O-methyl-oxime]	–	> 100 µM	–	inhibition at 2 µM (EGFR): 7%
CON=Cc1c(N)ncnc1NC1CCc2ccccc21 (stereo not drawn) [Cpd 124, 4-amino-6-(indan-1-ylamino)-pyrimidine-5-carbaldehyde O-methyl-oxime]	–	2.46 µM	–	inhibition at 2 µM (EGFR): 26%
CON=Cc1c(N)ncnc1NC1CCCc2ccccc21 (stereo not drawn) [Cpd 125, 4-amino-6-(1,2,3,4-tetrahydro-naphthalen-1-ylamino)-pyrimidine-5-carbaldehyde O-methyl-oxime]	–	–	–	inhibition at 1 µM (HER-2; test concentration of 1 μM, read-out: HER2 % inhibition): 25%; inhibition at 2 µM (EGFR): 42%
CON=Cc1c(N)ncnc1Nc1ccc(Oc2ccccc2)nc1 [Cpd 128, 4-amino-6-(6-phenoxy-pyridin-3-ylamino)-pyrimidine-5-carbaldehyde O-methyl-oxime]	–	1.82 µM	–	inhibition at 2 µM (EGFR): 45%
CON=Cc1c(N)ncnc1Nc1ccc(N2CCOCC2)nc1 [Cpd 129, 4-amino-6-(6-morpholin-4-yl-pyridin-3-ylamino)-pyrimidine-5-carbaldehyde O-methyl-oxime]	–	> 100 µM	–	inhibition at 2 µM (EGFR): 1%
